In ChEMBL document CHEMBL1201862, “PubChem BioAssay data set” (2004):
Activity calls are given as the source filed them.

How the values were obtained:
SUMO-activating enzyme = SUMO-activating enzyme (Homo sapiens, UniProt Q9UBT2); test: blockers of SAE1/SAE2–UBC9 SUMO transfer – biochemical, HTRF, uHTS, primary screen (AID 2006); type: protein-complex assay
[1] = molecular target: Protein-tyrosine kinase 2-beta (Homo sapiens, UniProt Q14289);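 further: potency of inhibitors of PYK2 kinase phosphorylation of poly-GT substrate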
Cytochrome P450 2D6 = Cytochrome P450 2D6 (Homo sapiens, UniProt P10635);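 further: CYP2D6 member of a cytochrome P450 panel assay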
Sequence of Cytochrome P450 2D6 (P10635 whole entry): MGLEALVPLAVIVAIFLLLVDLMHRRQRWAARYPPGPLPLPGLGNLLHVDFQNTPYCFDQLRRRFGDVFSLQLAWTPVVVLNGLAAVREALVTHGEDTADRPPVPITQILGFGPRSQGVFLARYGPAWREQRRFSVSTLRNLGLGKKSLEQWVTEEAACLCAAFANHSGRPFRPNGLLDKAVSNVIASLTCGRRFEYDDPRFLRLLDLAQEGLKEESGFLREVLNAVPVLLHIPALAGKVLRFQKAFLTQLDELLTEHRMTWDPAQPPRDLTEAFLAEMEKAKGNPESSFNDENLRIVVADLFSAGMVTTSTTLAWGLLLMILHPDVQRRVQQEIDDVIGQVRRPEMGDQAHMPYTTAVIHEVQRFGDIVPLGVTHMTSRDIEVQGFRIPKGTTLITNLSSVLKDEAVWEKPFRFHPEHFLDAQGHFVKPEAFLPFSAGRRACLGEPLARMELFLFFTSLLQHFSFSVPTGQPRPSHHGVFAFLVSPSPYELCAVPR

Estrogen receptor = molecular target: T1, Estrogen receptor (Homo sapiens, UniProt P03372);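 further: potency for inhibiting coactivator peptide recruitment to the receptor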
T1 sequence (P03372 whole entry): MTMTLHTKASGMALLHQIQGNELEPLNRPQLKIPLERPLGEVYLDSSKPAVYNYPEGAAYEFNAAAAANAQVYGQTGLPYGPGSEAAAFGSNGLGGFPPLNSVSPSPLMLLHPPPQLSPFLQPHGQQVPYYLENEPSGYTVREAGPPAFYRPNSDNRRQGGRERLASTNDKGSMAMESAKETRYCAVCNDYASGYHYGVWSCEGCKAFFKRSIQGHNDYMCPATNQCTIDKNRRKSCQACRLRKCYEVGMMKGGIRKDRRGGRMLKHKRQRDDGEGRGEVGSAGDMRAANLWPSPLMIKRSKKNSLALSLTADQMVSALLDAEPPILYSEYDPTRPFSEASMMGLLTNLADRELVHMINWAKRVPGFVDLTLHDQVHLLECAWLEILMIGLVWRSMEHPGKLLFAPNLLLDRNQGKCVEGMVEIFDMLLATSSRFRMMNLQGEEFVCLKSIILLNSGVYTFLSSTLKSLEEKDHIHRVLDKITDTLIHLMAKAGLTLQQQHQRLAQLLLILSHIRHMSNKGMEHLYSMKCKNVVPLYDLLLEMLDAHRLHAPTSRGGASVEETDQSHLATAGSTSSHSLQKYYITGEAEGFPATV

[2] = Shn3 3'UTR reporter signal decrease – cell-based, Clone20 osteoblasts, firefly luciferase, cherry-pick, set 2, Schnurri-3 inhibitor project, dose response (AID 720490); type: functional;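 further: actives lower the luminescence signal as inhibitors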
[3] = molecular target: Neurotensin receptor type 1 (Homo sapiens, UniProt P30989); type: functional;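 further: Image-based confirmatory dose-response assay measuring agonist activity at NTR1; NTR1-expressing U2OS osteosarcoma cells imaged for beta-arrestin GFP spot formation; agonist potency where compounds increase beta-arrestin recruitment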
Sequence of Neurotensin receptor type 1 (P30989 whole entry): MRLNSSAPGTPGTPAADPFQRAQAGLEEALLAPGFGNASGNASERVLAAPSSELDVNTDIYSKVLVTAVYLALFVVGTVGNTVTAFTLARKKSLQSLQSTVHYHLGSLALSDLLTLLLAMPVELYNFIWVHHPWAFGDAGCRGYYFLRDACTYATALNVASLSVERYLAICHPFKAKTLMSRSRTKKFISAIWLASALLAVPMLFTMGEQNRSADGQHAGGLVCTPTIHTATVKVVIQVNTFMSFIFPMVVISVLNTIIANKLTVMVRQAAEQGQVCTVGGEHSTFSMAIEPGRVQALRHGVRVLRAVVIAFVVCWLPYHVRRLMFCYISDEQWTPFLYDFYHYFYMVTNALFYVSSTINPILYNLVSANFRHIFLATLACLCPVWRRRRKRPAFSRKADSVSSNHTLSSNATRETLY

Protein Wnt-3a = Protein Wnt-3a (Mus musculus, UniProt P27467); test: antagonism of Wnt3a pathway luciferase reporter – Wnt-LIGHT cells, luminescence, selectivity assay for Gli-SUFU antagonist project, dose response (AID 651570); type: functional; conditions: read-out: IC50_Mean;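 further: Wnt-LIGHT reporter cells stimulated with conditioned medium from Wnt3a-producing cells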
Sequence of Protein Wnt-3a (P27467 whole entry): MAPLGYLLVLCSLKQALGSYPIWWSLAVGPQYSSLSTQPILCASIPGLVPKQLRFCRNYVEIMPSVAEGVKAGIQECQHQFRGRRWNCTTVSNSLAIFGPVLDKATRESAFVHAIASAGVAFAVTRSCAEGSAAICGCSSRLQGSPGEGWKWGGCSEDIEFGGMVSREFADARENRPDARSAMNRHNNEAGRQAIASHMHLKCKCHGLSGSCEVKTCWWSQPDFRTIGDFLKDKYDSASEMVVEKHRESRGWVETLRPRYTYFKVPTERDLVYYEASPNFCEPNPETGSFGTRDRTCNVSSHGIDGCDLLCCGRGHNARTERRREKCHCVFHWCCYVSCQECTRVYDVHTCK

[4] = non-specific 3'UTR reporter inhibition in Clone20-Shn3RL – cell-based, Renilla luciferase, cherry-picked, counter-screen for Shn3 inhibitor project, dose response (AID 624133); type: functional
[5] = loss of viability in HepG2 cells – cell-based, CellTiter-Glo, cherry-picked, cytotoxicity control for Shn3 inhibitor project, dose response (AID 624134); type: functional
[6] = blockers of HIV-1 envelope-mediated cell-cell fusion – cherry-pick, dose response (AID 652057); type: functional, cell-based
[7] = viability loss in CEM21 cells – cell-based, CellTiter-Glo luminescence, cherry-picked, cytotoxicity control for viral fusion inhibitor project, dose response (AID 652042); type: functional;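 further: potency for signal decrease meaning cytotoxicity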
[8] = molecular target: COUP transcription factor 2 (Homo sapiens, UniProt P24468); test: Luminescence-based cell-based high throughput dose response assay to identify inhibitors of COUP-TFII (NR2F2).; type: functional;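 further: HEK293 cells transiently cotransfected with COUP-TFII expression vector and reporter; luciferase reporter luminescence driven by COUP-TFII from the pX2-168 reporter plasmid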
Sequence of COUP transcription factor 2 (P24468 whole entry): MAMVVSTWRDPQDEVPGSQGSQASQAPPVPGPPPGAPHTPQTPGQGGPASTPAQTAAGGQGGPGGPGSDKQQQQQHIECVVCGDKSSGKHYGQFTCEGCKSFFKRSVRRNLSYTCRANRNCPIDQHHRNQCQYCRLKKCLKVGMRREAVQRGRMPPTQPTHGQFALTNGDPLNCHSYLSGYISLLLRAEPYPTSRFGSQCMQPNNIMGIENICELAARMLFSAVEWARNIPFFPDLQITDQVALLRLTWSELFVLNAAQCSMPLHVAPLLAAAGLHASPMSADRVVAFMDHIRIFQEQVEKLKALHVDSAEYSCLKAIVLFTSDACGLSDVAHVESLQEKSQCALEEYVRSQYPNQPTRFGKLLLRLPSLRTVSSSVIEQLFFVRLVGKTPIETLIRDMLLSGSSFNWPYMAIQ

[9] = Shn3 transcript knock-down in Clone20 cells – cell-based, qPCR, cherry-pick, dose response (AID 743415); type: functional
[10] = molecular target: Sphingosine 1-phosphate receptor 2 (Homo sapiens, UniProt O95136); test: Dose Response Cell Based Assay for Antagonists of the S1P2 Receptor. [Related pubchem assays: 856, 736 ]; type: functional
Sequence of Sphingosine 1-phosphate receptor 2 (O95136 whole entry, the tested form may be a part): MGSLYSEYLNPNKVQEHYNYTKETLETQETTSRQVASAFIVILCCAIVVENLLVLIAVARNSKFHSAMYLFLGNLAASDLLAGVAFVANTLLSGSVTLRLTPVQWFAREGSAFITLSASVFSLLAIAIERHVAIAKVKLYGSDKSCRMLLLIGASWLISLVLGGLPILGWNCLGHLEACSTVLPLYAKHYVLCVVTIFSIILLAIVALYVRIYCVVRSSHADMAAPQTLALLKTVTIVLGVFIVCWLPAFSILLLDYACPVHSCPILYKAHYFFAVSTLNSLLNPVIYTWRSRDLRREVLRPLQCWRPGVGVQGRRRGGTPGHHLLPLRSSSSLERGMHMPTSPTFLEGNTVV

[11] = HIV-1 AD8 envelope cell-cell fusion blockers – cherry-pick, dose response (AID 652062); type: functional, cell-based;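 further: luciferase signal from cell-cell fusion driven by HIV-1 clade B AD8 Env; potency is for inhibitors of fusion seen as a drop in luminescence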
[12] = reduction of Shn3 3'UTR-driven luciferase in osteoblasts – cell-based, Clone20 osteoblasts, firefly luciferase, cherry-picked, dose response (AID 624132); type: functional;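 further: firefly luciferase luminescence from reporter carrying the Shn3 3'UTR in osteoblasts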
[13] = mitochondrial function rescue without frataxin homolog – Friedreich's ataxia, plus single-dose screen, dose response (AID 1465); type: functional;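 further: yeast depleted of Yfh1p frataxin homolog grown on glycerol needing respiration; WST-1 tetrazolium dye reduction as measure of cellular dehydrogenase metabolic activity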
[14] = antiviral protection against BTV-induced cell death – arbovirus, BSR cells, confirmation (AID 1250); type: functional;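 further: protection from viral cytopathic effect measured as cell viability by ATP luminescence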
[15] = NIH-3T3 fibroblast cytotoxicity, dose response, cytotoxicity control, cell-based, fluorescence, Alamar Blue, secondary assay (AID 2327); type: functional;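 further: NIH-3T3 mouse fibroblasts cultured with fluconazole at 8 µg/mL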
Genome polyprotein [16] = molecular target: Genome polyprotein (dengue virus type 2, UniProt P29990); test: flavivirus cap methylation enzyme inhibition – biochemical, confirmation dose response, primary screen (AID 588689); type: functional
Sequence of Genome polyprotein (dengue virus type 2, UniProt P29990) (P29990 2492-3391 limits assumed): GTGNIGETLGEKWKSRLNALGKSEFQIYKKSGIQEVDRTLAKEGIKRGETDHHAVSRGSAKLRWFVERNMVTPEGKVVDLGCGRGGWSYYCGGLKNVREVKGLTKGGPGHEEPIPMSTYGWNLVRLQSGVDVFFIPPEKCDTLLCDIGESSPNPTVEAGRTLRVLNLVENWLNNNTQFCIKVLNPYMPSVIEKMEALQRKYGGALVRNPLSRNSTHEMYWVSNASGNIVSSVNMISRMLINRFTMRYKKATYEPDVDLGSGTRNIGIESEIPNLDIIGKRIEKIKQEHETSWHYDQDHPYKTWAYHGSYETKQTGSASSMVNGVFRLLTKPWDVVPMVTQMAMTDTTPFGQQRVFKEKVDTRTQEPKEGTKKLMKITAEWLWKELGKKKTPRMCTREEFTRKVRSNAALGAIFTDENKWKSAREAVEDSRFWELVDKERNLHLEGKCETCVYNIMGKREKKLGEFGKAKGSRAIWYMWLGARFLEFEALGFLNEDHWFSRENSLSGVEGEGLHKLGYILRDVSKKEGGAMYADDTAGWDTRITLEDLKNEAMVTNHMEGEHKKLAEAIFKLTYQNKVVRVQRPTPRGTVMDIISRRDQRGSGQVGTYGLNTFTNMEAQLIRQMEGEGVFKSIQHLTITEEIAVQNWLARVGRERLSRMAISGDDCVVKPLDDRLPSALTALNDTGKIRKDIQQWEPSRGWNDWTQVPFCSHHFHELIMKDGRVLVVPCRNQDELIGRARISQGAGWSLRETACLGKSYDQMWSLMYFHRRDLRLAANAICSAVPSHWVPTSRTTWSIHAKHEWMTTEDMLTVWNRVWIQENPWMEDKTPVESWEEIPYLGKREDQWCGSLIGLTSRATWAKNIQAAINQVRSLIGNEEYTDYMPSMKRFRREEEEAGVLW

[17] = fluconazole-exposed Candida albicans growth modulators – fluorescence, retest, confirmation (AID 2467); type: functional, cell-based
[18] = molecular target: 5-hydroxytryptamine receptor 1A (Homo sapiens, UniProt P08908); type: functional
Sequence of 5-hydroxytryptamine receptor 1A (P08908 whole entry): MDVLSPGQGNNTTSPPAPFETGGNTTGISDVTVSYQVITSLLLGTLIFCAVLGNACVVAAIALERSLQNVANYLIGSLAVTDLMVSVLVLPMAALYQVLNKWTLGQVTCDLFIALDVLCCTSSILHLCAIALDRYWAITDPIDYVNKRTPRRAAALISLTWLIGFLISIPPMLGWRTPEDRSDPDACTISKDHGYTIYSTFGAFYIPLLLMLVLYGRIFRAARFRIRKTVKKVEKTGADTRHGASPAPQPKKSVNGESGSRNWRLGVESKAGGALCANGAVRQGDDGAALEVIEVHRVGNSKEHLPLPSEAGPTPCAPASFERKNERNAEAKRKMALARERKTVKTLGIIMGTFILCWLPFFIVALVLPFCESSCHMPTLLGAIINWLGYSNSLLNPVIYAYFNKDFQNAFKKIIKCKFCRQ

Genome polyprotein [19] = molecular target: Genome polyprotein (Hepatitis C virus, UniProt Q2Q167); test: disruption of hepatitis C core self-association – biochemical, TR-FRET, dose response (AID 2159); design: species or system Hepacivirus hominis;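 further: blocks dimerization of HCV core protein measured by TR-FRET between tagged core106 pairs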
Sequence of Genome polyprotein (Hepatitis C virus, UniProt Q2Q167) (Q2Q167 whole entry): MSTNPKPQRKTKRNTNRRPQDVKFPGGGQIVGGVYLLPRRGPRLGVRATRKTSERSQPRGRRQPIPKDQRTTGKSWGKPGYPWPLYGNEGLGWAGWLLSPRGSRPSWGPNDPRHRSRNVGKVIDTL

[20] = Luminescence-based dose response cell-based high throughput screening assay for cytotoxic compounds using the IEC-6 intestinal epithelial cell line. [Related pubchem assays: 1858 (Summary AID.), 1825 (Counterscreen.), 1907 (Confirmation screen.)]; type: functional
[21] = alpha-synuclein stem-loop luciferase translation blockers – H4 neuroglioma cells, luminescence, confirmation (AID 1988); type: functional, cell-based
[22] = luciferase reporter signal suppression in cells – H4 neuroglioma cells, luminescence, dose response (AID 1990); type: functional, cell-based
[23] = Luminescence Cell-Based Dose Response HTS to Identify Inhibitors of 5'UTR Stem-Loop Driven Prion Protein mRNA Translation in H4 Neuroglioblastoma Cells. [Related pubchem assays: 1827 (Project Summary), 1813 (Primary HTS)]; type: functional

Sequence of SUMO-activating enzyme (Q9UBE0 whole entry): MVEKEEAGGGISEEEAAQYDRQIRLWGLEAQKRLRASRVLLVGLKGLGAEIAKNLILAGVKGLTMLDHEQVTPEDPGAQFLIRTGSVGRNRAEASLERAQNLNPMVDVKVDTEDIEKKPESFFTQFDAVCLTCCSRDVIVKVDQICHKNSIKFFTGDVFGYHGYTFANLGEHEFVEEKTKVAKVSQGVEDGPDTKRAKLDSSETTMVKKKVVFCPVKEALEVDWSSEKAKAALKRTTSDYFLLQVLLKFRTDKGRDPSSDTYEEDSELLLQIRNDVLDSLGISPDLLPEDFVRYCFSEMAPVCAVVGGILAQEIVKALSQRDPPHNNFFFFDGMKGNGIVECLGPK
Sequence of SUMO-activating enzyme (Q9UBT2 whole entry): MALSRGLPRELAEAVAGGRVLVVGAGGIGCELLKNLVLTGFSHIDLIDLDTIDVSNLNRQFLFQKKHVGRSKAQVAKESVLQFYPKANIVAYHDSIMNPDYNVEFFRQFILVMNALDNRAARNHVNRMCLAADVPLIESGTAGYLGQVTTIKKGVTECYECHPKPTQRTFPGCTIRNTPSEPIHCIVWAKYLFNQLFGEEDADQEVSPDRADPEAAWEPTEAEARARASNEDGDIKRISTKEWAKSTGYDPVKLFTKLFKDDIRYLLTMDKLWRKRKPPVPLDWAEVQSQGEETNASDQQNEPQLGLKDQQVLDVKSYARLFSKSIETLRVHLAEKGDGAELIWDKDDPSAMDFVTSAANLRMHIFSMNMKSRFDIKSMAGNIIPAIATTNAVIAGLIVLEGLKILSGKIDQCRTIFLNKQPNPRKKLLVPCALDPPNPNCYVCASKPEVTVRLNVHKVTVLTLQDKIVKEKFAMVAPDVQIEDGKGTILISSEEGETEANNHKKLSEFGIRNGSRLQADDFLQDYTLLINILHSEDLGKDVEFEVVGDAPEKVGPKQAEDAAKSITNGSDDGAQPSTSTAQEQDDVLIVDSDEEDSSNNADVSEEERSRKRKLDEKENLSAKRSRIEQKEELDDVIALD

## O=C(Nc1ccc(-n2nncc2-c2ccco2)cc1)c1cc2ccccc2oc1=O
SUMO-activating enzyme
  IC50: 14.7 µM (active)
[1]
  IC50: 1.9 µM (active)
Cytochrome P450 2D6
  AC50: 2.51 µM (inconclusive)
Estrogen receptor
  IC50: 40.6 µM (not active)

## Fc1ccc(-n2nnnc2-c2cnc(-c3cccs3)nc2C(F)(F)F)cc1
[2]
  AC50: 2.6 µM (active)
[3]
  EC50: 9.77 µM (active)
Protein Wnt-3a
  IC50: 5.83 µM (active)
[4]
  AC50: 13.3 µM (active)
[5]
  AC50: 55 µM (active)
[6]
  AC50: 9.88 µM (active)
[7]
  AC50: 18.8 µM (active)
[8]
  IC50: 12.8 µM (inactive)
[9]
  AC50: 24.4 µM (active)
[10]
  IC50: 5.2 µM (active)
[11]
  AC50: 40.4 µM (active)
[12]
  AC50: 4.44 µM (active)

## CC(C)NC(=O)/C(C#N)=C/c1ccc(N(C)C)o1
[13]
  EC50: > 100 µM (active)

## CCCCCCn1c(=O)c(-c2ccccc2)c(O)c2ccccc21
[14]
  IC50: 25 µM (active)
[15]
  EC50: > 150 µM (inactive)
Genome polyprotein [16]
  IC50: 69.4 µM (active)
[17]
  EC50: 4.42 µM (active)

## O=C(NCc1ccccc1)NC1(C(=O)N2CCCC2)CCCCC1
[18]
  EC50: > 50 µM (not active)

## CCc1nnc(NCC(=O)N2CCc3ccccc32)s1
Genome polyprotein [19]
  IC50: > 49.8 µM (not active)

## CC(C)NCC(O)Cn1c2c(c3ccccc31)CCc1c-2cnn1-c1ccccc1 (configuration not stated)
[20]
  IC50: 3.51 µM (active)
[21]
  EC50: 6.18 µM (active)
[22]
  EC50: 8.19 µM (active)
[23]
  EC50: 10.7 µM (active)
